Source: patent US20240174727A1, “LONG-ACTING NATRIURETIC PEPTIDES AND USES THEREOF” (Eli Lilly and Company, priority 2022, published 2024)
Like-named read-outs stand apart in the source and are kept apart here. Numbered stars: 1 amine (or outer) side, 2 acyl side, 3 side chain; on linkers, the order of the positions; unused ones are H or OH. Bridge positions count the residues as written; N and C are the ends. * marks the point of attachment. C20 diacid = O=C(O)CCCCCCCCCCCCCCCCCCC(=O)*; γGlu = O=C(O)[C@H](CCC(=O)[*:2])N[*:1]; CH2 = C([*:1])[*:2]

Biological target: T1, rat NPRA (Rattus norvegicus, UniProt P18910)
T1 construct: Full-Length cDNA Cloning and Generation of Cell Lines Overexpressing Natriuretic Peptide Receptors (NPRs); expressed in transfected cells; host or cells: Jump-in T-Rex HEK293 cells, pJTI R4 CMV-TO MCS pA vector, tetracycline induction
T1 sequence (P18910 29-1057): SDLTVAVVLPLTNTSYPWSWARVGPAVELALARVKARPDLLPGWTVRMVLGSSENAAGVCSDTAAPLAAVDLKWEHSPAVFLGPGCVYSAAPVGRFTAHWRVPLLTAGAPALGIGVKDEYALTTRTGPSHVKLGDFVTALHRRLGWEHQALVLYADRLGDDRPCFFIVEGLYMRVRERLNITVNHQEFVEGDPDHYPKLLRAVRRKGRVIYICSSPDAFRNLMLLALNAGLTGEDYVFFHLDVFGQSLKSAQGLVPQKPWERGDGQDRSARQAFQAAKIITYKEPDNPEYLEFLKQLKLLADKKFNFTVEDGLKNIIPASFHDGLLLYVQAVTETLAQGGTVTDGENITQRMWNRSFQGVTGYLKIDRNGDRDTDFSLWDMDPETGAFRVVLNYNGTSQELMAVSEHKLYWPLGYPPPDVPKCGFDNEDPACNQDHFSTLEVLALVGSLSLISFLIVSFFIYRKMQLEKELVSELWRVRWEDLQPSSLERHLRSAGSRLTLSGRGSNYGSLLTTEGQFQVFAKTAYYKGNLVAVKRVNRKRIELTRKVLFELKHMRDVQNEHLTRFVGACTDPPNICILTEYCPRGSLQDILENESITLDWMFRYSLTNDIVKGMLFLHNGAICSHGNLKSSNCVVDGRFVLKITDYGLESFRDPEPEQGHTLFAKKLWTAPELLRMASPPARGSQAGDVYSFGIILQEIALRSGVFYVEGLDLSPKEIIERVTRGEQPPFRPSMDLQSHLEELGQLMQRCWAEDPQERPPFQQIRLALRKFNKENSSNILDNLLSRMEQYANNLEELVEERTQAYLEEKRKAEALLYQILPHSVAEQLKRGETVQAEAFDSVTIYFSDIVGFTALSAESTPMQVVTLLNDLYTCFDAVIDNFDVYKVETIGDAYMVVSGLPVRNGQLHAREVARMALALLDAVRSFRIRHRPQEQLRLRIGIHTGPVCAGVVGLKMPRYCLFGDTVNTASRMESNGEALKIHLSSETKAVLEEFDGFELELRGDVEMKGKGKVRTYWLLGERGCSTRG
Test: Rat NPRA cGMP activity assay (HTRF) in HEK293 cells overexpressing NPRA
Format: cell-based
Experimental: All sequences were verified by full-length sequencing performed by ACGT DNA Sequencing Services (Wheeling, IL). The target cDNA was cloned into pJTI R4 CMV-TO MCS pA vector and then co-transfected with pJT1R4 Int vector into Jump-in™ T-Rex™ HEK293 cells for mammalian inducible expression using Jump-in™ T-Rex™ HEK293 kit and Lipofectamine LTX and Plus Reagent following manufacturer's protocols, as briefly described below.
Jump-in™ T-Rex™ HEK293 cells were plated in a BioCOAT® poly-D-lysine coated 6-well plate (Becton Dickinson, cat no. 354413) at 1 million cells/well in 2 mL culture medium and incubated for 18 h at 37° C. and 5% CO2 to 50-70% confluence. A cDNA mix was made in a 50 mL tube by adding 1.5 μg target cDNA, 1.5 μg pJT1R4 Int vector, 3 μL Plus Reagent, and 300 μL Opti-MEM I sequentially into the tube. A reagent mix was made in a separate 50 mL tube by adding 7.5 μL Lipofectamine LTX into 300 μL Opti-MEM I. The mixtures were incubated for 5 min at room temperature. The cDNA mix was then transferred into the reagent mix, mixed well, and incubated for additional 30 min at room temperature. A 500 μL of cDNA/Lipofectamine complex was then transferred to the wells of the cell plate in which the culture medium was changed to 2 mL of transfection medium containing DMEM with 4.5 g/L D-glucose supplemented with 10% FBS-HI and 20 mM HEPES. Transfected cells were cultured for 48 h in an incubator at 37° C. and 5% CO2. A subclone or pool from each overexpressing cell line was maintained in culture medium with the addition of 2 mg/mL G418 sulfate for the clone selection based on its built-in resistance to G418 sulfate for at least 3 weeks with medium changed every 2-3 days.
NPRs were overexpressed in T-Rex™ HEK293 cells following the induction with 300 ng/mL tetracycline in culture medium for 48 h. Induced cell lines in an exponential growth phase were treated with 0.05% trypsin-EDTA for a few seconds at room temperature, harvested in cell medium containing FBS to neutralize the trypsin, counted, and cryopreserved at the density of 2 million cells/mL in cell preservation solution containing FBS-HI with 5% DMSO. Cryopreserved cells were stored at −80° C. for a few days prior to transferring to a liquid nitrogen tank. Induced cell lines were then used for suspension assays to measure the activity of polypeptides to stimulate cGMP production in cGMP assays or for the preparation of cell membranes to measure the binding activity of polypeptides in competitive radioligand binding assays, as described below.
Test polypeptides were added starting at 10 μM concentration and at 10-fold decreasing concentrations to obtain 8-point concentration-response curves (i.e., 10 μM to 1 pM). The quantity of cGMP generated was detected using HTRF® technology and normalized to maximum amount produced by 100 nM amidated rat ANP and the minimum amount produced by assay buffer. Detailed steps are outlined below.
Stock solutions of test polypeptides (2 mM) dissolved in DMSO were first diluted 100-fold in assay buffer containing HBSS with Ca^2+ and Mg^2+, 5 mM HEPES, 0.5 mM IBMX, and 0.1% BSA or 0.1% casein (pH 7.4). The polypeptides were further serially diluted in 1:10 dilution steps in assay buffer containing 0.1% BSA or 0.1% casein to generate 8-point 2× working stock solutions ranging from 20 μM to […].
A 10 μL cell suspension containing 4000 cells was plated in Costar® half-area white opaque 96-well plates (Corning, cat no. 3693). Then 10 μL of assay buffer (basal activity), 200 nM of amidated rat ANP (maximum activity) or 2× working stock solutions of test polypeptides were transferred into the plate. Final concentration of DMSO in each well was 0.5%. The plate was shaken for 15 sec and then incubated for 40 min at room temperature.
The cGMP generated was measured using cGMP kit following the manufacturer's directions, as described below.

[1] = cGMP Assay (EC50, pM) w/Casein rNPRA, assay buffer with 0.1% casein

Compound: {C20 diacid-γGlu}-EKEKEKGEKPRSSCFGKRIDRIGHQSGLGCPSFRHGSGSPSSGAPPPSG-NH2 (linker 14-30 via CH2) [Example 131]
- EC50 [1]: 2160 pM

Compound: CC[C@H](C)[C@@H]1NC(=O)[C@H](CCCNC(=N)N)NC(=O)[C@H](CC(=O)O)NC(=O)[C@H]([C@@H](C)CC)NC(=O)[C@H](CCCNC(=N)N)NC(=O)CNC(=O)CNC(=O)[C@H](Cc2ccccc2)NC(=O)[C@@H](NC(=O)[C@H](CO)NC(=O)[C@H](CO)NC(=O)[C@H](CCCNC(=N)N)NC(=O)[C@H](CCCNC(=N)N)NC(=O)[C@H](Cc2ccncc2)NC(=O)[C@H](CO)NC(=O)CCOCCOCCOCCOCCOCCOCCOCCOCCOCCOCCOCCOCCNC(=O)CNC(=O)[C@H](CCCCN)NC(=O)[C@H](CCC(=O)O)NC(=O)[C@H](CCCCN)NC(=O)[C@H](CCC(=O)O)NC(=O)[C@H](CCCCN)NC(=O)[C@H](CCC(=O)O)NC(=O)CC[C@H](NC(=O)CCCCCCCCCCCCCCCCCCC(=O)O)C(=O)O)CSCSC[C@@H](C(=O)N2CCC[C@H]2C(=O)N[C@@H](CO)C(=O)N[C@@H](Cc2ccccc2)C(=O)N[C@@H](CCCNC(=N)N)C(=O)N[C@@H](Cc2c[nH]cn2)C(=O)NCC(=O)NCC(=O)N[C@@H](CCCCN)C(=O)N[C@@H](CO)C(=O)N[C@@H](CO)C(=O)NCC(=O)N[C@@H](C)C(=O)N2CCC[C@H]2C(=O)N2CCC[C@H]2C(=O)N2CCC[C@H]2C(=O)N[C@@H](CO)C(N)=O)NC(=O)CNC(=O)[C@H](CC(C)C)NC(=O)CNC(=O)[C@H](CO)NC(=O)[C@H](CCC(N)=O)NC(=O)[C@H](Cc2c[nH]cn2)NC(=O)CNC1=O [Example 82]
- EC50 (assay buffer with 0.1% casein, read-out: cGMP Assay (EC50, pM) w/Casein rNPRA): 25400 pM

Compound: CC[C@H](C)[C@@H]1NC(=O)[C@H](CCCNC(=N)N)NC(=O)[C@H](CC(=O)O)NC(=O)[C@H]([C@@H](C)CC)NC(=O)[C@H](CCCNC(=N)N)NC(=O)[C@H](CCCCN)NC(=O)CNC(=O)[C@H](Cc2ccccc2)NC(=O)[C@@H](NC(=O)[C@H](CO)NC(=O)[C@H](CO)NC(=O)[C@H](CCCNC(=N)N)NC(=O)[C@@H]2CCCN2C(=O)[C@H](CCCCN)NC(=O)[C@H](CCC(=O)O)NC(=O)COCCOCCNC(=O)COCCOCCNC(=O)COCCOCCNC(=O)COCCOCCNC(=O)COCCOCCNC(=O)COCCOCCNC(=O)CNC(=O)[C@H](CCCCN)NC(=O)[C@H](CCC(=O)O)NC(=O)[C@H](CCCCN)NC(=O)[C@H](CCC(=O)O)NC(=O)[C@H](CCCCN)NC(=O)[C@H](CCC(=O)O)NC(=O)CC[C@H](NC(=O)CCCCCCCCCCCCCCCCCCC(=O)O)C(=O)O)CSCSC[C@@H](C(=O)N2CCC[C@H]2C(=O)N[C@@H](CO)C(=O)N[C@@H](Cc2ccccc2)C(=O)N[C@@H](CCCNC(=N)N)C(=O)N[C@@H](Cc2c[nH]cn2)C(=O)NCC(=O)N[C@@H](CO)C(=O)N2CCC[C@H]2C(=O)N[C@@H](CO)C(=O)N[C@@H](CO)C(=O)NCC(=O)N[C@@H](C)C(=O)N2CCC[C@H]2C(=O)N2CCC[C@H]2C(=O)N2CCC[C@H]2C(=O)N[C@@H](CO)C(N)=O)NC(=O)CNC(=O)[C@H](CC(C)C)NC(=O)CNC(=O)[C@H](CO)NC(=O)[C@H](Cc2ccc(O)cc2)NC(=O)[C@H](Cc2c[nH]cn2)NC(=O)CNC1=O [Example 122, HOOC-(CH2)18-CO-(γGlu)-EKEKEKG-(AEEA)6-EKPRSS[CFGKRIDRIGHYSGLGCJPSFRHGSPSSGAPPPS-NH2]
- EC50 [1]: 3770 pM

Compound: CC[C@H](C)[C@@H]1NC(=O)[C@H](CCCNC(=N)N)NC(=O)[C@H](CC(=O)O)NC(=O)[C@H]([C@@H](C)CC)NC(=O)[C@H](CCCNC(=N)N)NC(=O)[C@H](CCCCN)NC(=O)CNC(=O)[C@H](Cc2ccccc2)NC(=O)[C@@H](NC(=O)[C@H](CO)NC(=O)[C@H](CO)NC(=O)[C@H](CCCNC(=N)N)NC(=O)[C@H](CCCNC(=N)N)NC(=O)[C@H](Cc2ccncc2)NC(=O)[C@H](CO)NC(=O)CCOCCOCCOCCOCCOCCOCCOCCOCCOCCOCCOCCOCCOCCOCCOCCOCCOCCOCCOCCOCCOCCOCCOCCOCCNC(=O)CNC(=O)[C@H](CCCCN)NC(=O)[C@H](CCC(=O)O)NC(=O)[C@H](CCCCN)NC(=O)[C@H](CCC(=O)O)NC(=O)[C@H](CCCCN)NC(=O)[C@H](CCC(=O)O)NC(=O)CC[C@H](NC(=O)CCCCCCCCCCCCCCCCCCC(=O)O)C(=O)O)CSCSC[C@@H](C(=O)N2CCC[C@H]2C(=O)N[C@@H](CO)C(=O)N[C@@H](Cc2ccccc2)C(=O)N[C@@H](CCCNC(=N)N)C(=O)N[C@@H](Cc2c[nH]cn2)C(=O)NCC(=O)N[C@@H](CO)C(=O)N2CCC[C@H]2C(=O)N[C@@H](CO)C(=O)N[C@@H](CO)C(=O)NCC(=O)N[C@@H](C)C(=O)N2CCC[C@H]2C(=O)N2CCC[C@H]2C(=O)N2CCC[C@H]2C(=O)N[C@@H](CO)C(N)=O)NC(=O)CNC(=O)[C@H](CC(C)C)NC(=O)CNC(=O)[C@H](CO)NC(=O)[C@H](Cc2ccc(O)cc2)NC(=O)[C@H](Cc2c[nH]cn2)NC(=O)CNC1=O [Example 115]
- EC50 (cGMP Assay (EC50, pM) w/BSA rNPRA, assay buffer with 0.1% BSA): 100000 pM
